Data reported in patent US11622991B2, “Protocol for treatment of lupus nephritis” (Aurinia Pharmaceuticals Inc., priority 2017, dated 2023).

Legend:
[1] = test system: lupus nephritis; test: Probability of attaining CR by proteinuria depending on UPCR reduction of 25% at 8 weeks (Tables 9a, 9b); assay type: in vivo, human
[2] = test system: lupus nephritis; test: 48 week study of LN treatment: complete and partial remission; assay type: in vivo, human; details: for patients showing complete remission (CR) / patients showing partial remission (PR): 24 weeks
Description: The study was conducted over a period of 48 weeks and safety was evaluated at 24 weeks.
Subjects were screened prior to admission to the study by (a) determining that the urine protein creatinine ratio (UPCR) as >1.5 mg/mg as measured by first morning void, and (b) that the eGFR as measured by Chronic Kidney Disease Epidemiology Collaboration equation (CKD-EP1) of >45 ml/min/1.73 m^2. Subjects were assessed after 24 weeks and 48 weeks as well as a subsequent evaluation at 50 weeks.
PR is a composite end-point that includes safety and efficacy: UPCR reduction of 50% from baseline and no use of rescue medication

[3] = high dosage 39.5 mg BID with MMF and corticosteroids
[4] = low dosage 23.7 mg BID with MMF and corticosteroids

C=C/C=C/C[C@@H](C)[C@@H](O)[C@H]1C(=O)N[C@@H](CC)C(=O)N(C)CC(=O)N(C)[C@@H](CC(C)C)C(=O)N[C@@H](C(C)C)C(=O)N(C)[C@@H](CC(C)C)C(=O)N[C@@H](C)C(=O)N[C@H](C)C(=O)N(C)[C@@H](CC(C)C)C(=O)N(C)[C@@H](CC(C)C)C(=O)N(C)[C@@H](C(C)C)C(=O)N1C [voclosporin]
# of patients without UPCR reduction of ≥25% at 8 weeks ([1]; High Dose (39.5 mg BID)): 12
# of CRs by Proteinuria at 24 weeks ([1]; Low Dose (23.7 mg BID)): 29
# of patients with UPCR reduction of ≥25% at 8 weeks ([1]; Low Dose (23.7 mg BID)): 64
# of patients without UPCR reduction of ≥25% at 8 weeks ([1]; Low Dose (23.7 mg BID)): 16
patients showing complete remission (CR) [2, 3]: 27%
patients showing partial remission (PR) [2, 3]: 66%
patients showing complete remission (CR) [2, 4]: 32.6%
patients showing partial remission (PR) [2, 4]: 70%
subjects showing complete remission (CR) ([2]; 48 weeks, low dosage 23.7 mg BID with MMF and corticosteroids): 49%
